{
  "source": "patent US7781161B2",
  "about": "“Genomic screen for epigenetically silenced tumor suppressor genes” (The Johns Hopkins University School of Medicine, priority 2002, dated 2010)",
  "type_in_all_cases": "cell-based, human",
  "key": {"3 ESCC cell lines": {"system": "3 ESCC cell lines", "test": "Microarray screen, pooled over the 3 ESCC cell lines", "method": "(§1) Cells were split to low density (5×10^5 per T-25 flask) 12 to 24 hr before treatment, then treated for 3, 4, or 5 days with 1 μM or 5 μM 5Aza-dC (Sigma) from 100-mM 50% acetic acid dissolved stock or were mock-treated with the same volume of phosphate buffered saline (PBS) including the same acetic acid. Following an initial incubation (48 hr) of 5Aza-dC, a final concentration of 300 nM TSA (Sigma) was added to the media from a 5 mM ethanol dissolved stock, or cells were mock-treated with an identical volume of ethanol.\n(§2) Oligonucleotide microarray analysis was performed using the GeneChip™ Human Genome U95Av2 Array (Affymetrix), which contains 12,599 genes, according to the manufacturer's instruction. […] RNA was isolated using TRIZOL reagent (Invitrogen Corp.) and reverse-transcribed total RNA (8 μg) with M-MLV (Invitrogen Corp.); one one-hundredth of the cDNA product was used as a template for PCR. RT-PCR was performed at 24 to 30 cycles: 95° C. for 1 min, 54 or 56° C. for 1 min, and 72° C. for 1 min.\nTreatment of cells with the demethylating agent 5aza-dC (1 μM or 5 μM) for 3 to 5 days, and with or without the histone deacetylase inhibitor, TSA (300 nM; last 24 hours), was used to reactivate genes epigenetically silenced in 3 ESCC cell lines. […]"}, "KYSE30": {"system": "KYSE30", "test": "Oligonucleotide microarray: genes up-regulated after 5Aza-dC ± TSA treatment", "conditions": "at least 3.0 fold increase", "method": "as §1, §2\n(§3) Treatment of cells with the demethylating agent 5aza-dC (1 μM or 5 μM) for 3 to 5 days, and with or without the histone deacetylase inhibitor, TSA (300 nM; last 24 hours), was used to reactivate genes epigenetically silenced in 3 ESCC cell lines. […] The number of candidate genes was further diminished by comparing expression patterns (see world wide web, at URL “cgap.nci.nih.gov”) in normal esophagus and carcinoma tissue samples (eliminating those genes not expressed in normal tissue), and excluding unknown genes."}, "KYSE520": {"system": "KYSE520", "test": "Oligonucleotide microarray: genes up-regulated after 5Aza-dC ± TSA treatment", "conditions": "at least 3.0 fold increase", "method": "as §1, §2, §3"}, "KYSE410": {"system": "KYSE410", "test": "Oligonucleotide microarray: genes up-regulated after 5Aza-dC ± TSA treatment", "conditions": "at least 3.0 fold increase", "method": "as §1, §2, §3"}, "HNSCC #011 cell line": {"system": "HNSCC #011 cell line", "test": "Microarray screen for reactivated genes in HNSCC cells", "conditions": "10 μM 5Aza-dC", "method": "as §1, §2\nHNSCC cells were incubated with 10 μM 5Aza-dC or with 0.1 μM 5Aza-dC and 300 nM TSA and screened as described in Example 1."}},
  "data": [
    {"molecule": "Nc1ncn([C@H]2C[C@H](O)[C@@H](CO)O2)c(=O)n1", "note": "[5Aza-dC, 5-aza-2′-deoxycytidine]", "values": [
      {"measurement": "Share of all up-regulated genes included in the treatment group", "setting": "3 ESCC cell lines; 5 μM 5Aza-dC treatment group, 3 ESCC cell lines", "result": "> 80", "unit": "%"},
      {"measurement": "STAT3 expression after treatment", "setting": "3 ESCC cell lines; after 5Aza-dC treatments", "result": "did not change"},
      {"measurement": "Genes upregulated by microarray analysis after treatments", "setting": "KYSE30; 1 μM 5Aza-dC", "result": 46, "unit": "genes"},
      {"measurement": "Genes upregulated by microarray analysis after treatments", "setting": "KYSE30; 5 μM 5Aza-dC", "result": 242, "unit": "genes"},
      {"measurement": "Genes upregulated by microarray analysis after treatments", "setting": "KYSE520; 1 μM 5Aza-dC", "result": 5, "unit": "genes"},
      {"measurement": "Genes upregulated by microarray analysis after treatments", "setting": "KYSE520; 5 μM 5Aza-dC", "result": 149, "unit": "genes"},
      {"measurement": "Genes upregulated by microarray analysis after treatments", "setting": "KYSE410; 1 μM 5Aza-dC", "result": 15, "unit": "genes"},
      {"measurement": "Genes upregulated by microarray analysis after treatments", "setting": "KYSE410; 5 μM 5Aza-dC", "result": 334, "unit": "genes"},
      {"measurement": "Reactivation of epigenetically silenced genes", "setting": "HNSCC #011 cell line; HNSCC cells", "result": "Reactivation of epigenetically silenced genes was observed"},
      {"measurement": "Fold increase in expression: H.sapiens p27 mRNA (X67325)", "setting": "HNSCC #011 cell line; probe 425_at, HNSCC #011", "result": 5.8, "unit": "fold"},
      {"measurement": "Fold increase in expression: tumor necrosis factor alpha inducible protein", "setting": "HNSCC #011 cell line; probe 595_at, HNSCC #011", "result": 3.648, "unit": "fold"},
      {"measurement": "Fold increase in expression: von Hippel-Lindau disease tumor suppressor mRNA", "setting": "HNSCC #011 cell line; probe 1668_s_a, HNSCC #011", "result": 2.4375, "unit": "fold"},
      {"measurement": "Fold increase in expression: insulin-like growth factor binding protein 6 (IGFBP6) gene (M62402)", "setting": "HNSCC #011 cell line; probe 1736_at, HNSCC #011", "result": 2.2, "unit": "fold"},
      {"measurement": "Fold increase in expression: Human Rad mRNA (L24564)", "setting": "HNSCC #011 cell line; probe 1776_at, HNSCC #011", "result": 10.9, "unit": "fold"},
      {"measurement": "Fold increase in expression: mRNA for TGF-betaIIR alpha", "setting": "HNSCC #011 cell line; probe 1814_at, HNSCC #011", "result": 3.3, "unit": "fold"},
      {"measurement": "Fold increase in expression: Human Bc12, p53 binding protein (U58334)", "setting": "HNSCC #011 cell line; probe 1860_at, HNSCC #011", "result": 2.3, "unit": "fold"},
      {"measurement": "Fold increase in expression: Human R-ras gene (M14949)", "setting": "HNSCC #011 cell line; probe 1879_at, HNSCC #011", "result": 3.7, "unit": "fold"},
      {"measurement": "Fold increase in expression: Human excision repair protein (ERCC1) mRNA", "setting": "HNSCC #011 cell line; probe 1902_at, HNSCC #011", "result": 5.562, "unit": "fold"},
      {"measurement": "Fold increase in expression: Human wild-type p53 activated fragment-1 (WAF1) mRNA (U03106)", "setting": "HNSCC #011 cell line; probe 2031_s_a, HNSCC #011", "result": 2.9, "unit": "fold"},
      {"measurement": "Fold increase in expression: breast cancer putative transcription factor (ZABC1) gene (AF041259)", "setting": "HNSCC #011 cell line; probe 32034_at, HNSCC #011", "result": 3.1, "unit": "fold"},
      {"measurement": "Fold increase in expression: DR4 homolog; TRAIL receptor 2", "setting": "HNSCC #011 cell line; probe 34892_at, HNSCC #011", "result": 2.4292, "unit": "fold"},
      {"measurement": "Fold increase in expression: DOC-1 related protein", "setting": "HNSCC #011 cell line; probe 35151_at, HNSCC #011", "result": 2.4474, "unit": "fold"},
      {"measurement": "Fold increase in expression: Mothers against dpp (Mad) gene (DPC4 gene), U10328", "setting": "HNSCC #011 cell line; probe 36953_at, HNSCC #011", "result": 3.5132, "unit": "fold"},
      {"measurement": "Fold increase in expression: TGFb inducible early protein and early growth response protein alpha genes (AF050110)", "setting": "HNSCC #011 cell line; probe 38374_at, HNSCC #011", "result": 2.3, "unit": "fold"},
      {"measurement": "Fold increase in expression: insulin-like growth factor binding protein 4 (IGFBP4) gene (U20982)", "setting": "HNSCC #011 cell line; probe 39781_at, HNSCC #011", "result": 3.7, "unit": "fold"}
    ]}
  ]
}
